According to patent US11737462B2, “Methods for modulating plant response to environmentally-induced stress” (Howard University, priority 2012, dated 2023):

What was measured:
[1] = system: homodimerized RACK1A maintaining yeast cells (AA); assay: UV-B induced cell death in homodimerized RACK1A maintaining yeast cells (AA); format: cell-based; settings: 60 μM overnight, Live/dead staining, vs DMSO-only control
Description: (§1) In this experiment, yeast cells were irradiated with UV-B light to analyze the effect of SD-29 analogs on UV-B induced cell death. The yeast cells were developed to assay for RACK1A homodimerization assays using split-ubiquitin technique. In this assay, homodimerized RACK1A maintaining yeast cells (AA) were grown overnight in the presence of 60 μM of the indicated compounds. Yeast cells treated overnight with SD-29-7, SD-29-9, and SD-29-11 with and without exposure to UV-B were compared to a DMSO-only control. The cells were stained with Invitrogen's Live/dead cell assay system where dead cells appeared as intensely fluorescent with brightness under a fluorescent microscope.
(§2) In this experiment, yeast was treated with UV-B to analyze the effect of SD-29-12 on UV-B induced cell death. Two groups of yeast were used. One was the yeast used in Example 6 (“AA”) and the other (“YY”) is a Y248F mutant. The AA cells can homodimerize but YY cells cannot.
(§3) The yeast was treated overnight with SD-29-12 and then followed the same protocol as described in Example 6.

RACK1A = RACK1A (Arabidopsis thaliana, UniProt O24456); assay: in-vitro assay of tyrosine phosphorylation (Y248) based homodimerization of RACK1A; format: biochemical; settings: in-vitro assay
From the text: A crystal structure of Arabidopsis thaliana RACK1 protein has been reported. Deducing the crystal structure of the Arabidopsis RACK1A protein highlighted the potential functional residues of the protein. Noteworthy in the structure was the functionally conserved tyrosine phosphorylation residue (Y248) that has been implicated in RACK1A function. Therefore, it was undertaken to identify a chemical inhibitor of Y248 phosphorylation that would serve as a potential “anti-stress” compound in countering environmental stresses in plants. In order to identify small compounds occupying the Y248 pocket, docking simulations with a subset of 30,000 compounds were performed. Based on ranking with an energy cut-off of 25 kcal/mol, 3,011 compounds were then selected. Upon further re-ranking, 46 lead compounds were identified and 11 compounds were screened for their efficacy in an in-vitro assay. […] Those six compounds include SD-29, SD-29-9, SD-29-11, SD-29-22, SD-34, and SD-125.

Arabidopsis RACK1A = molecular target: T1, Arabidopsis RACK1A (Arabidopsis thaliana, UniProt O24456); assay: western blot of RACK1A tyrosine phosphorylation in Arabidopsis leaves under heat stress; format: in vivo; settings: 42° C. for three hours, western blot, antibody to phosphorylated Y248
T1 construct: from tissue; host or cells: Arabidopsis plant leaves
Description: In the examples described herein, the test compounds (e.g., SD-29 or analogs thereof) were dissolved in dimethyl sulfoxide (DMSO) to provide a 20 mM concentration. Micromolar concentrations were then prepared as needed by addition to the water incubation media. Unless stated otherwise, the experimental plants were incubated with the roots immersed in the water containing the compound. The control plants received only DMSO in the same amount as that of the compound. In the second group (FIG. 3), Arabidopsis plants were held at 42° C. for six hours and compared to control plants held at about 22° C. The Arabidopsis plant in the experimental group was treated with 60 μM SD-29 in water. A control plant received water and DMSO. Lysates were then prepared from the leaves and western blots were performed using immobilized mouse anti-pTRY and Arabidopsis-anti RAC[…]. […] A similar experiment was carried out using analog SD-29-9 and SD-29 at 42° C. for three hours. […] A western blot was then performed using an antibody that was raised targeting phosphorylated […] residue of RAC[…].

Arabidopsis plants = assay: high temperature stress (42° C.) in Arabidopsis plants; format: in vivo, Arabidopsis thaliana
Y248F mutant yeast (YY) = assay: UV-B induced cell death in Y248F mutant yeast (YY); format: cell-based; settings: treated overnight, Live/dead staining
Description: as §1, §2, §3

plant = assay: salt sensitivity when applied to a plant; settings: in vivo

Chain of RACK1A (O24456 whole entry): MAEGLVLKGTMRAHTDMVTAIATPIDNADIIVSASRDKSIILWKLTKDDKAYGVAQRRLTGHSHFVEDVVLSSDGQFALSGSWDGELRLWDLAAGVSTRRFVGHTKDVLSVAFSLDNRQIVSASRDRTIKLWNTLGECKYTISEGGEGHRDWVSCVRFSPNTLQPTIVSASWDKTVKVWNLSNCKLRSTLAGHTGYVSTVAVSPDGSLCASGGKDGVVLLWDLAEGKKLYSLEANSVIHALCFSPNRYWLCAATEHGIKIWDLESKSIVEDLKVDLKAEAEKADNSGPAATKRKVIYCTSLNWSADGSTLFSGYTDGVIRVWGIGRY
T1 sequence (O24456 whole entry): as above

SMILES	UV-B induced cell death in yeast cells (AA) [1]	tyrosine phosphorylation (Y248) based homodimerization of RACK1A proteins (RACK1A)	also measured
Nn1c(SCc2ccc(F)cc2)nnc1-c1ccc(Cl)cc1 [SD-29-7]	did not protect the cells	–	–
Cc1cc(Cl)ccc1NC(=O)CSc1nnc(-c2cccc(Cl)c2)n1N [SD-29-9]	effective to protect yeast cells from UV-B induced cell death	prevent tyrosine phosphorylation (Y248) based homodimerization of RACK1A proteins	Arabidopsis RACK1A tyrosine phosphorylation at increased temperature (Arabidopsis RACK1A): effective to prevent Arabidopsis RACK1A tyrosine phosphorylation at increased temperature
COc1cc(-c2nnc(SCC(=O)Nc3ccc(Oc4ccccc4)cc3)n2N)cc(OC)c1OC [SD-29-11]	effective to protect yeast cells from UV-B induced cell death	prevent tyrosine phosphorylation (Y248) based homodimerization of RACK1A proteins	–
COc1ccc(-c2nnc(SCC(=O)O)n2N)cc1 [SD-29-12]	effective to prevent UV-B induced cell death	–	high temperature stress induced deformations in Arabidopsis plants (Arabidopsis plants; 42° C., vs vehicle control (DMSO)): very effective in preventing high temperature stress induced deformations; heat sensitivity when applied to a plant (Arabidopsis plants; in vivo): does not induce heat sensitivity; UV-B induced cell death in Y248F mutant yeast (YY) (Y248F mutant yeast (YY)): failed to provide protection from UV-B induced cell death; salt sensitivity when applied to a plant (plant): induces salt sensitivity
Cc1ccc2[nH]cc(C(O)C(F)(F)F)c2c1 (stereo not shown) [SD-34]	–	prevent tyrosine phosphorylation (Y248) based homodimerization of RACK1A proteins	–
COc1ccc2[nH]cc(CC(N)C(=O)O)c2c1 (stereo not shown) [SD-125]	–	prevent tyrosine phosphorylation (Y248) based homodimerization of RACK1A proteins	–
